Data as given in PubChem BioAssay (NCI).
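Five compound concentrations were applied to cells in 96-well plates for 48 hours; endpoints were derived by simple linear interpolation of the resulting dose-response curve. GI50 = concentration required for 50% inhibition of growth. The concentration for full growth arrest is given as TGI.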

Tests used:
Experiment in all cases: inhibition of tumour cell growth, NCI panel, 48 h
ACHN renal = tested on: ACHN renal
HCT-116 colon = tested on: HCT-116 colon
HCT-15 colon = tested on: HCT-15 colon
HT29 colon = tested on: HT29 colon
MALME-3M melanoma = tested on: MALME-3M melanoma
OVCAR-5 ovarian = tested on: OVCAR-5 ovarian
SF-295 CNS = tested on: SF-295 CNS
U251 CNS = tested on: U251 CNS
PC-3 prostate = tested on: PC-3 prostate
T-47D breast = tested on: T-47D breast

| SMILES | TGI (ACHN renal) [µM] | TGI (HCT-116 colon) [µM] | TGI (HCT-15 colon) [µM] | TGI (HT29 colon) [µM] | TGI (MALME-3M melanoma) [µM] | TGI (OVCAR-5 ovarian) [µM] | TGI (SF-295 CNS) [µM] | TGI (U251 CNS) [µM] | GI50 (ACHN renal) [nM] | GI50 (HCT-116 colon) [µM] | GI50 (HCT-15 colon) [nM] | GI50 (HT29 colon) [µM] | GI50 (MALME-3M melanoma) [µM] | GI50 (OVCAR-5 ovarian) [µM] | GI50 (PC-3 prostate) [µM] | TGI (PC-3 prostate) [µM] | GI50 (T-47D breast) [µM] | TGI (T-47D breast) [µM] | GI50 (U251 CNS) [nM] | GI50 (SF-295 CNS) [nM] |
| --- | --- | --- | --- | --- | --- | --- | --- | --- | --- | --- | --- | --- | --- | --- | --- | --- | --- | --- | --- | --- |
| COC(OC)c1cccc2c1C1(O)CCC3(CC21)OCCCCO3 (stereo not drawn) | > 100 | > 100 | > 100 | > 100 | > 100 | > 100 | > 100 | > 100 | – | – | – | – | – | – | – | – | – | – | – | – |
| CCCNCc1nc2ccc(Br)cc2c(=O)n1CCC | 29.6 | 21.5 | 27.4 | 29.9 | 26.4 | – | 30.6 | 26.3 | – | – | – | – | – | – | – | – | – | – | – | – |
| C(=C\c1csnn1)/c1cccnc1 | > 100 | > 100 | > 100 | > 100 | > 100 | > 100 | > 100 | > 100 | – | – | – | – | – | – | – | – | – | – | – | – |
| COc1ccc2c3c1C(=O)CCC3CO2 (stereo not drawn) | > 100 | > 100 | > 100 | > 100 | > 100 | > 100 | > 100 | > 100 | – | – | – | – | – | – | – | – | – | – | – | – |
| CC(=O)N1CC2Nc3ccccc3C2CC1CO (stereo not drawn) | > 100 | > 100 | > 100 | > 100 | > 100 | > 100 | > 100 | > 100 | – | – | – | – | – | – | – | – | – | – | – | – |
| CCCCCCCCCCCC(=O)OCC1OC(n2cc(F)c(=O)[nH]c2=O)C(N)C(OC(=O)CCCCCCCCCCC)C1O (stereo not drawn) | > 100 | > 100 | > 100 | > 100 | > 100 | – | > 100 | > 100 | – | – | – | – | – | – | – | – | – | – | – | – |
| ClCCN(CCCl)c1ccc(-n2cnc3c(Cl)ncnc32)cc1 | 3.54 | 3.33 | 3.65 | 4.15 | 4.41 | 35.9 | – | 9.1 | 1840 | 1.82 | 1790 | 2.07 | 2.17 | 17.9 | 4.38 | 18.2 | 3.28 | 12.9 | 2910 | – |
| Cc1ccccc1C(=O)Oc1ccc(Oc2ccccc2)cc1 | > 100 | > 100 | > 100 | > 100 | > 100 | > 100 | > 100 | > 100 | – | – | – | – | – | – | – | – | – | – | – | – |
| O=C1/C(=C/c2ccccc2Cl)N=C(c2ccccc2)N1Cc1ccco1 | > 100 | > 100 | > 100 | > 100 | 36 | > 100 | – | > 100 | > 100000 | 18.5 | 25500 | 36.4 | 16.6 | > 100 | 39 | > 100 | 53.2 | > 100 | 57800 | – |
| CCC[CH2][Sn]([CH2]CCC)([O]C(=O)c1cccc(F)c1)[O]C(=O)c1cccc(F)c1 | 2.59 | 2.55 | 3.45 | 3.38 | 2.25 | 4.24 | 2.86 | 2.26 | 1300 | 1.29 | 1160 | 1.73 | 0.907 | 2.67 | – | – | – | – | 1050 | 1480 |
| COc1cccc(/C=N\Nc2ccc([N+](=O)[O-])cn2)c1O | 7.61 | 15.2 | 39.7 | > 100 | 36 | 82.7 | – | 19.8 | 2330 | 3.04 | – | 28.8 | 4.11 | 5.71 | 14 | > 100 | 3.83 | 89.1 | 1930 | – |
| Cc1cc(NS(=O)(=O)c2ccc(NC(=O)c3cccc4c(N)c5ccccc5nc34)cc2)no1 | 46.6 | 27.6 | > 100 | 80.8 | 77.4 | > 100 | 67.2 | 78.2 | – | – | – | – | – | – | – | – | – | – | – | – |
| C=C1CC(CCCl)(c2ccccc2)OC1=O (stereo not drawn) | > 56.3 | > 53.9 | 39.2 | > 72.1 | 56.8 | > 100 | > 100 | > 100 | – | – | – | – | – | – | – | – | – | – | – | – |
| O=c1ccccc2cccc(O)c12 | > 100 | > 100 | > 100 | > 100 | – | – | > 100 | > 100 | – | – | – | – | – | – | – | – | – | – | – | – |
| O=C(O)/C(=C/c1ccccc1[N+](=O)[O-])c1ccccc1 | > 100 | > 100 | > 100 | > 100 | – | > 100 | > 100 | > 100 | – | – | – | – | – | – | – | – | – | – | – | – |
| CCCCC(=O)N/N=C/c1cc(I)cc(I)c1O | 13.4 | 21.9 | > 100 | 29.4 | – | > 100 | 12.9 | 16.1 | 2400 | 3.63 | 897 | 8.46 | – | 12.6 | 3.35 | 20.9 | – | – | 1990 | 2450 |
| Nc1ccc(Nc2nc(F)nc(-c3c4ccccc4c4n3CCS4)n2)cc1 | 25.3 | 28 | 25.5 | – | 31.6 | 32.8 | 33.7 | 31 | – | – | – | – | – | – | – | – | – | – | – | – |
| O=Cc1ccc(-c2ccc(-c3ccc(C=O)s3)o2)s1 | > 100 | > 100 | > 100 | > 100 | > 100 | 11 | > 100 | > 50.8 | – | – | – | – | – | – | – | > 100 | – | – | – | – |
| CC(c1ccc(Br)cc1)C(C(=O)O)C(=O)O (stereo not drawn) | > 100 | > 100 | > 100 | > 100 | > 100 | > 100 | > 100 | > 100 | – | – | – | – | – | – | – | – | – | – | – | – |
| Cc1ccc(NC(=O)/C(CC(=O)c2c[n+](=O)c3ccccc3n2O)=N\NC(=O)C[n+]2ccccc2)cc1 | > 100 | > 100 | > 100 | > 100 | > 100 | > 100 | > 100 | > 100 | – | – | – | – | – | – | – | – | – | – | – | – |
| Cc1c(C(=O)/C=C/c2ccc(Cl)cc2)[n+](=O)c2ccccc2n1[O-] | 29.6 | 18.5 | 24.1 | 28.2 | 38.1 | 28.3 | 27.1 | 26.3 | – | – | – | – | – | – | – | – | – | – | – | – |
